Results on ten compounds are retold here after US11161837B2, “Benzofuran derivatives for the treatment of hepatitis C” (BRISTOL-MYERS SQUIBB COMPANY, priority 2016, dated 2021).

This experiment relates to genotype 1b (Con-1) HCV replicon in Huh-7 cells. In words: HCV replicon luciferase assay. Format: cell-based. The note with it: Hepatitis C virus, Huh-7, 72 h, 1b replicon, Huh-7, Renilla luciferase, 3 days incubation. How it is done: The cell lines used to evaluate compounds consist of a human hepatocyte derived cell line (Huh-7) that constitutively expresses a genotype 1b (Con-1) HCV replicon or a genotype 1b (Con-1) HCV replicon with an asparagine replacing the cysteine at amino acid 316, or a genotype 2a (JFH-1) replicon, containing a Renilla luciferase reporter gene. These cells were maintained in Dulbecco's modified Eagle medium (DMEM) containing 10% FBS, 100 U/mL penicillin/streptomycin and 1.0 mg/mL G418.
HCV Replicon Luciferase Assay.
To evaluate compound efficacy, titrated compounds were transferred to sterile 384-well tissue culture treated plates, and the plates were seeded with HCV replicon cells (50 μL at a density of 2.4×10^3 cells/well) in DMEM containing 4% FBS (final DMSO concentration at 0.5%). After 3 days incubation at 37° C., cells were analyzed for Renilla Luciferase activity using the EnduRen substrate (Promega cat # E6485) according to the manufacturer's directions. Briefly, the EnduRen substrate was diluted in DMEM and then added to the plates to a final concentration of 7.5 μM. The plates were incubated for at least 1 h at 37° C. then read on a Viewlux Imager (PerkinElmer) using a luminescence program. The 50% effective concentration (EC50) was calculated using the four-parameter logistic formula noted above.

In general, EC50 refers to the concentration that produces a half-maximal response.

Compound `CCN(c1cc2oc(-c3ccc(F)cc3)c(C(=O)NC)c2c(F)c1-c1cccc(C(=O)NC2(c3ncccn3)CC(OC(F)F)C2)c1)S(C)(=O)=O` (stereo not shown) [Example 21, 5-(3-((3-(Difluoromethoxy)-1-(pyrimidin-2-yl)cyclobutyl)carbamoyl)phenyl)-6-(N-ethylmethylsulfonamido)-4-fluoro-2-(4-fluorophenyl)-N-methylbenzofuran-3-carboxamide] displayed an EC50 of 2.23 nM. In the case of `CCN(c1cc2oc(-c3ccc(F)cc3)c(C(=O)NC)c2c(F)c1-c1cccc(C(=O)NC2(c3ncccn3)CC(F)C2)c1)S(C)(=O)=O` (stereo not shown) [Example 22, 6-(N-ethylmethylsulfonamido)-4-fluoro-5-(3-((3-fluoro-1-(pyrimidin-2-yl)cyclobutyl)carbamoyl)phenyl)-2-(4-fluorophenyl)-N-methylbenzofuran-3-carboxamide] it was 4.94 nM; in that of `CCN(c1cc2oc(-c3ccc(F)cc3)c(C(=O)NC)c2cc1-c1cccc(C(=O)NC2(c3ncccn3)CC(OC(F)F)C2)c1)S(C)(=O)=O` (stereo not shown) [Example 24, 5-(3-((3-(difluoromethoxy)-1-(pyrimidin-2-yl)cyclobutyl)carbamoyl)phenyl)-6-(N-ethylmethylsulfonamido)-2-(4-fluorophenyl)-N-methylbenzofuran-3-carboxamide], 2.2 nM. The figure for `CCN(c1cc2oc(-c3ccc(F)cc3)c(C(=O)NC)c2c(F)c1-c1ccc(OC)c(C(=O)NC2(c3ncccn3)CC(F)C2)c1)S(C)(=O)=O` (stereo not shown) [Example 26, 6-(N-ethylmethylsulfonamido)-4-fluoro-5-(3-((3-fluoro-1-(pyrimidin-2-yl)cyclobutyl)carbamoyl)-4-methoxyphenyl)-2-(4-fluorophenyl)-N-methylbenzofuran-3-carboxamide] is 2.25 nM. In the case of `CCCc1cc2oc(-c3ccc(F)cc3)c(C(=O)NC)c2cc1-c1ccc(F)c(C(=O)NC2(c3ncccn3)CC(OC(F)F)C2)c1` (stereo not shown) [Example 32, 5-(3-((3-(Difluoromethoxy)-1-(pyrimidin-2-yl)cyclobutyl)carbamoyl)-4-fluorophenyl)-2-(4-fluorophenyl)-N-methyl-6-propylbenzofuran-3-carboxamide] it was 9.02 nM. The compound `CCCc1cc2oc(-c3ccc(F)cc3)c(C(=O)NC)c2cc1-c1cccc(C(=O)NC2(c3ncccn3)CC(OC(F)F)C2)c1` (stereo not shown) [Example 33, 5-(3-((3-(Difluoromethoxy)-1-(pyrimidin-2-yl)cyclobutyl)carbamoyl)phenyl)-2-(4-fluorophenyl)-N-methyl-6-propylbenzofuran-3-carboxamide] yielded an EC50 of 4.55 nM. On to `CCCc1cc2oc(-c3ccc(F)cc3)c(C(=O)NC)c2cc1-c1ccc(OC)c(C(=O)NC2(c3ncccn3)CC(OC(F)F)C2)c1` (stereo not shown) [Example 37], for which the EC50 came out at 6.08 nM. As for `CCCc1cc2oc(-c3ccc(F)cc3)c(C(=O)NC)c2cc1-c1cc(C(=O)NC2(c3ncccn3)CC(OC(F)F)C2)c(OC)cc1C` (stereo not shown) [Example 39, 5-(5-((3-(Difluoromethoxy)-1-(pyrimidin-2-yl)cyclobutyl)carbamoyl)-4-methoxy-2-methylphenyl)-2-(4-fluorophenyl)-N-methyl-6-propylbenzofuran-3-carboxamide], the EC50 was 20 nM.

Turning to `CNC(=O)c1c(-c2ccc(F)cc2)oc2cc(CCC(F)(F)F)c(-c3cc(C(=O)NC4(c5ncccn5)CC(OC(F)F)C4)c(OC)cc3C)cc12` (stereo not shown) [Example 41, 5-(5-((3-(Difluoromethoxy)-1-(pyrimidin-2-yl)cyclobutyl)carbamoyl)-4-methoxy-2-methylphenyl)-2-(4-fluorophenyl)-N-methyl-6-(3,3,3-trifluoropropyl)benzofuran-3-carboxamide], the EC50 amounted to 20 nM. This lies in the double-digit nanomolar range. In the case of `CCOc1cc2oc(-c3ccc(F)cc3)c(C(=O)NC)c2cc1-c1cccc(C(=O)NC2(c3ncon3)CC(OC(F)F)C2)c1` (stereo not shown) [Example 70, 5-(3-((3-(Difluoromethoxy)-1-(1,2,4-oxadiazol-3-yl)cyclobutyl)carbamoyl)phenyl)-6-ethoxy-2-(4-fluorophenyl)-N-methylbenzofuran-3-carboxamide] it was 6.47 nM.
